Assay results as given in PubChem BioAssay (NCI).
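In this assay, cells in 96-well plates receive the compound at five concentrations for 48 hours. Endpoints are linearly interpolated between the surrounding concentrations. GI50: concentration for 50% inhibition of growth. At the TGI there is no net growth.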

Experiments:
Experiment in all cases: NCI anticancer screen, dose series, 48 h
[1] = test system: HOP-62 NSCLC
[2] = test system: HOP-92 NSCLC
[3] = test system: PC-3 prostate
[4] = test system: RPMI-8226 leukemia
[5] = test system: SF-268 CNS
[6] = test system: SF-539 CNS
[7] = test system: SK-MEL-2 melanoma
[8] = test system: SN12C renal
[9] = test system: T-47D breast
[10] = test system: UACC-62 melanoma

SMILES | GI50 [1] [µM] | TGI [1] [µM] | GI50 [2] [µM] | TGI [2] [µM] | GI50 [3] [µM] | TGI [3] [µM] | GI50 [4] [µM] | TGI [4] [µM] | GI50 [5] [µM] | TGI [5] [µM] | GI50 [6] [µM] | TGI [6] [µM] | GI50 [7] [µM] | TGI [7] [µM] | GI50 [8] [µM] | TGI [8] [µM] | GI50 [9] [µM] | TGI [9] [µM] | GI50 [10] [µM] | TGI [10] [µM]
COC(=O)c1ccc2c(c1)nc(-c1ccc(Cl)cc1)n2-c1cc(C(C)(C)C)[nH]n1 | 3.41 | 21 | 1.15 | 8.02 | 2.93 | 15.7 | 3.93 | 11.2 | 3.29 | 17.8 | 2.54 | 8.95 | 3.89 | 18.1 | 4.34 | 27.7 | 3.64 | > 100 | 2.01 | 7.78
Cn1c(=O)c(Cc2ccc(F)cc2F)cc2cnc(NC3CCOCC3)nc21 | > 25 | > 25 | 2.13 | > 25 | > 25 | > 25 | > 23.6 | > 25 | > 25 | > 25 | > 25 | > 25 | > 25 | > 25 | > 19.8 | > 25 | 9.47 | > 25 | > 23.8 | > 25
Cc1ccc(/C=C(\C#N)n2nnc3cc(F)c(F)cc32)cc1 | 1.52 | 3.64 | 2.37 | 8.32 | 5.16 | 24.3 | 2.85 | 8.71 | 3.63 | 20.9 | 2.59 | 10.3 | 2.26 | 7.97 | 2.72 | 7.41 | 1.19 | 5.39 | 3.71 | 17.5
COC(=O)c1oc2c(C(=O)/C=C/c3ccc(OC)cc3)c(OCCCN3CCCCC3)ccc2c1C | 1.67 | 3.48 | 0.808 | 2.59 | 2.39 | 7.02 | 1.72 | 4 | 2.24 | 4.69 | 1.45 | 2.91 | 1.87 | 7.65 | 1.75 | 4.86 | 1.42 | 4.89 | 1.54 | 3
CCN1C(=O)N(c2c(F)c(OC)cc(OC)c2F)Cc2cnc3[nH]c(CN4CCOCC4)cc3c21 | 2.35 | > 100 | 2.06 | > 100 | 4.34 | > 100 | 3.79 | > 100 | 2.19 | > 100 | 1.01 | 13.7 | 1.08 | 41.8 | 2.78 | 28.2 | 3.04 | 25 | 3.77 | 51.5
CC1=C(C)C(=O)C(C(C)C2=C(C)C(=O)C(C)=C(C)C2=O)=C(C)C1=O | > 100 | > 100 | 13.8 | 39.7 | 20.9 | > 100 | 7.09 | 31.6 | 18.7 | 49.7 | 23.7 | > 100 | 33.8 | > 100 | 56 | > 100 | 12.8 | 26.4 | 19.3 | > 100
COc1ccccc1Nc1nc(-c2cc3cccc(C(F)(F)F)c3oc2=O)cs1 | 0.134 | 29.7 | 0.112 | 33.1 | 0.162 | > 100 | 0.24 | > 71.4 | 0.214 | > 100 | 0.043 | 0.199 | 0.262 | > 100 | 1.04 | > 100 | 0.0535 | > 100 | 0.154 | > 81.6
